SMILES strings stand for the structures.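 Interpolation was linear, between the two tested concentrations surrounding the appropriate level; five concentrations were tested over 48 hours in 96-well plates. Here, GI50 denotes the concentration required for 50% inhibition of growth. TGI: total growth inhibition.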 Bounds are passed on as bounds.

Experiment in all cases: inhibition of tumour cell growth, NCI panel, 48 h
The test system of assay [1] is MOLT-4 leukemia.
Assay [2] has as its system MALME-3M melanoma.
The test system of assay [3] is OVCAR-3 ovarian.
For assay [4], the system named is SF-268 CNS.
Assay [5] has as its system RPMI-8226 leukemia.
For assay [6], the system named is MDA-MB-435.
For assay [7], the system named is SNB-19 CNS.
Assay [8] has as its system SK-MEL-2 melanoma.
Assay [9] deals with SW-620 colon.
Assay [10] has as its system EKVX NSCLC.

As to `Cc1cc(C)c2c(n1)sc1c(N)ncnc12`, the GI50 in assay [1], in [2], in assay [3], in [4], in [5] and in assay [6] was more than 25 µM throughout. The GI50 in assay [7], in assay [8] and in [9] was more than 25 µM in each case. In addition, the TGI in assay [1], in assay [2], in assay [3], in [4], in assay [5] and in [6] was more than 25 µM throughout. The TGI in assay [7], in assay [8] and in assay [9] was more than 25 µM throughout.
`C=C/C(C)=C/C[C@]1(C)[C@H](C)[C@@H](OC(=O)CCC)[C@H](O)[C@@]23C(=C[C@H](OC)C[C@@H]12)[C@@H](OC(=O)CCC)O[C@H]3OC(C)=O`: the GI50 in [1] was 0.348 µM; in assay [2], 0.313 µM; in [3], 0.191 µM; in assay [4], 1.58 µM; in assay [5], 0.341 µM; in assay [6], 0.298 µM. Besides, the GI50 in assay [10] was 0.987 µM; in [7], 1.66 µM; in assay [8] it was 0.549 µM; in assay [9], 0.333 µM. Moreover, the TGI was determined as 1.55 µM in assay [1]; 1.03 µM in assay [2]; 0.4 µM in assay [3]; 3.25 µM in assay [4]; 1.65 µM in [5]; 0.95 µM in assay [6]. The TGI in assay [10] amounted to 2.61 µM; in assay [7], 3.58 µM; in assay [8] it was 2.09 µM; in assay [9], 1.21 µM.
On to `Cn1c(=O)c2[nH]c(SCCN3CCOCC3)nc2n(C)c1=S`, for which the TGI in [1], in [2], in [3], in assay [4], in assay [5] and in [6] was more than 100 µM throughout. Also, the TGI in [10], in assay [7], in [8] and in assay [9] was more than 100 µM in each case.
Take `CCn1c(-c2cc3c([nH]c4ccccc43)c(-c3cccc(O)c3)n2)n[nH]c1=S`: the GI50 in assay [1] was 2.38 µM; in [2], 2.56 µM; in [3] it was 3.13 µM; in [4], 4.04 µM; in [5], 2.5 µM; in assay [6], 0.0496 µM. Moreover, the GI50 in assay [10] is 3.45 µM; in [7] it was 4.28 µM; in assay [8], 2.05 µM; in [9] it was 4.15 µM. The TGI was determined as 6.77 µM in assay [1]; 11.4 µM in assay [2]; 11.4 µM in assay [3]; 17.4 µM in assay [4]; 8.78 µM in assay [5]; 2.94 µM in assay [6]. The TGI amounted to 14.5 µM in [10], 16.6 µM in [7], 5.81 µM in assay [8] and 18.9 µM in assay [9].
Consider `CCN1CCN(Cc2ccc(NC(=O)Nc3nc4ccc(Oc5ccnc(C(=O)NC)c5)cc4s3)cc2C(F)(F)F)CC1`, for which the GI50 in assay [1] was 2.13 µM; in assay [2], 1.2 µM; in assay [3] it was 1.89 µM; in [4], 2 µM; in [5], 2.1 µM; in assay [6], 1.44 µM. The GI50 was 2.01 µM in assay [10], 2.33 µM in assay [7], 1.75 µM in [8] and 2.07 µM in [9]. Moreover, the TGI came to 5.02 µM in [1]; 2.67 µM in [2]; 3.59 µM in [3]; 4.12 µM in assay [4]; 5.34 µM in assay [5]; 2.86 µM in [6]. The TGI in assay [10] amounted to 6.67 µM; in assay [7], 4.86 µM; in assay [8] it was 3.51 µM; in [9], 3.87 µM.
As for `C=C1C(=O)O[C@H]2[C@H]1CC/C(COC(=O)NCc1ccc(OC)cc1)=C\CC[C@@]1(C)O[C@@H]21`, the GI50 in [1] was 0.843 µM; in [2], 0.554 µM; in assay [3] it was 0.595 µM; in assay [4], 1.72 µM; in assay [5], 0.683 µM; in assay [6], 0.805 µM. The GI50 in assay [10] was 3.93 µM; in assay [7], 3.01 µM; in [8], 3.04 µM; in assay [9], 0.635 µM. Also, the TGI was determined as 2.31 µM in assay [1]; 1.29 µM in assay [2]; 1.53 µM in assay [3]; 13.4 µM in assay [4]; 2.3 µM in assay [5]; 2.62 µM in [6]. In addition, the TGI in [10] came to 17.4 µM; in assay [7], 11 µM; in [8], 10.4 µM; in assay [9] it was 1.55 µM.
`CN1CCN(Cc2ccc(NC(=O)c3cncc(C#Cc4cnc(N)cc4C#N)c3)cc2C(F)(F)F)CC1`: the GI50 in assay [1] was 1.86 µM; in [2] it was 0.264 µM; in assay [3] it was 4.88 µM; in [4], 3.7 µM; in [5], 3.83 µM; in assay [6] it was 1.98 µM. In addition, the GI50 in assay [10] is 3.4 µM; in assay [7] it was 6.27 µM; in [8], 1.15 µM; in [9], 2.92 µM. Further, the TGI was found to be 22.3 µM in [1]; 0.943 µM in assay [2]; 20.4 µM in [3]; 19.2 µM in assay [4]; 21 µM in assay [5]; 11.7 µM in [6]. The TGI in [10] is 14.7 µM; in assay [7], 18.9 µM; in assay [8], 3.44 µM; in [9], 11.4 µM.
For `O=S1(=O)N(Cc2ccccc2)[C@@H](Cc2ccccc2)[C@H](O)[C@H](O)[C@H](Cc2ccccc2)N1Cc1ccccc1`, the GI50 is 2.86 µM in assay [1]; 2.75 µM in assay [2]; 2.9 µM in assay [3]; 3.44 µM in assay [4]; 4.49 µM in assay [5]; 3.33 µM in assay [6]. Moreover, the GI50 was 3.43 µM in [10], 4.69 µM in [7], 2.8 µM in assay [8] and 3.18 µM in assay [9]. Besides, the TGI in [1] was 10.2 µM; in assay [2], 6.37 µM; in assay [3], 6.07 µM; in assay [4], 8.03 µM; in assay [5], more than 20 µM; in [6], 7.1 µM. The TGI in [10] is 9.86 µM; in [7], more than 20 µM; in assay [8], 5.76 µM; in assay [9], 7.12 µM.
Consider `O=C(/C=C/c1ccc(O)c(O)c1)NCc1c[nH]c2ccccc12`, for which the GI50 in assay [1] is 25.8 µM; in assay [2], 29.2 µM; in assay [3] it was 28.4 µM; in [4], 63.8 µM; in assay [5], 57.9 µM; in assay [6] it was 41.9 µM. Moreover, the GI50 is 41.5 µM in [10], more than 100 µM in assay [7] and 58.6 µM in assay [9]. Also, the TGI in assay [1], in assay [2], in assay [3], in [4], in [5] and in assay [6] was more than 100 µM in each case. Also, the TGI in assay [10], in assay [7] and in assay [9] was more than 100 µM throughout.
In the case of `CCCn1cnc2c(SCC(=O)O)nc(N)nc21`, the TGI in [2], in assay [3], in assay [4], in assay [5], in assay [6] and in assay [10] was more than 100 µM in each case. For the same compound, the TGI in assay [7], in assay [8] and in [9] was more than 100 µM in each case.
`CCCCCCCC(=O)OCCCC1[C@]2(C)CC[C@@]3(C)C([C@H](C)CCC=C(C)C)CC[C@]3(C)C2CC[C@]12OC2(C)C` (stereo partly drawn): the GI50 in assay [1] is 22.1 µM; in assay [2], more than 100 µM; in [3], 24.9 µM; in [4] it was 27.2 µM; in assay [5] it was 36.4 µM; in assay [6], 36.6 µM. For the same compound, the results for the GI50 in [10], in [7] and in [9] were 49.7 µM, 34.5 µM and 40.4 µM, respectively. Also, the TGI was 57.1 µM in [1]; more than 100 µM in [2]; 65.2 µM in [3]; 81.8 µM in assay [4]; more than 100 µM in assay [5]; more than 100 µM in [6]. Besides, the TGI in [10] was more than 100 µM; in assay [7], 97.6 µM; in [9] it was more than 100 µM.
As for `Cc1cc(Nc2nc(C(=O)Nc3ccccc3)nc3ccccc23)n[nH]1`, the GI50 was 9.75 µM in [1]; 13.8 µM in assay [2]; 11.5 µM in assay [3]; 9.25 µM in assay [4]; 12.5 µM in assay [5]; 9.67 µM in [6]. Also, the GI50 in assay [7] was more than 25 µM; in assay [8] it was 3.57 µM; in [9], 9.7 µM. Also, the TGI in [1], in assay [2], in assay [3], in assay [4], in [5] and in assay [6] was more than 25 µM throughout. The TGI in assay [7], in [8] and in [9] was more than 25 µM each time.
Turning to `O=C1C2=C(C(=O)c3cnccc31)C1C=CC2CC1` (stereo not drawn), the GI50 in assay [2] was 2.12 µM; in assay [3] it was 1.85 µM; in [4], 1.9 µM; in assay [5], 2.28 µM; in assay [6], 1.8 µM; in assay [10], 1.92 µM. Also, the GI50 is 5.03 µM in assay [7], 1.89 µM in assay [8] and 1.85 µM in assay [9]. The TGI stood at 4.45 µM in [2]; 3.66 µM in assay [3]; 3.84 µM in [4]; 5.59 µM in [5]; 3.55 µM in [6]; 4.13 µM in assay [10]. Besides, the TGI in assay [7] worked out at 9.41 µM; in assay [8], 3.52 µM; in assay [9], 3.44 µM.
Take `c1cc(-c2nnc(SSc3ncnc4nc[nH]c34)o2)ccn1`: the GI50 in assay [1] is 1.23 µM; in [2] it was 2.08 µM; in [3], 0.319 µM; in assay [4], 2.18 µM; in [5] it was 1.32 µM; in assay [6], 0.497 µM. In addition, the GI50 in assay [10] was 24.4 µM; in assay [7], 78.4 µM; in assay [9], 3.38 µM. In addition, the TGI in assay [1] is more than 100 µM; in assay [2], more than 100 µM; in assay [3], 1.73 µM; in assay [4], more than 100 µM; in assay [5], more than 100 µM; in assay [6], more than 100 µM. For the same compound, the TGI in assay [10], in assay [7] and in assay [9] was more than 100 µM in each case.
Turning to `NS(=O)(=O)c1ccc(N2N=C3c4ccccc4CC3C2c2cccs2)cc1` (stereo not drawn), the GI50 is 18.9 µM in assay [1]; 24.8 µM in assay [3]; more than 100 µM in assay [4]; 32.3 µM in assay [5]; 19.3 µM in [6]; 15.9 µM in assay [10]. Further, the GI50 is 34.4 µM in [7], more than 100 µM in assay [8] and 35.4 µM in assay [9]. The TGI in assay [1] was more than 100 µM; in assay [3] it was 47.8 µM; in assay [4] it was more than 100 µM; in assay [5], more than 100 µM; in [6] it was 48.1 µM; in assay [10], 52.5 µM. The TGI in assay [7], in [8] and in assay [9] was more than 100 µM in each case.
Regarding `O=C(Nc1ccc(F)cc1F)c1cc(Cl)ccc1O`, the GI50 in assay [2] is 0.782 µM; in assay [3], 0.955 µM; in assay [4], 1.3 µM; in assay [5], 0.689 µM; in assay [6], 1.21 µM; in assay [10], 1.94 µM. The GI50 in [7] was 1.45 µM; in assay [8], 1.16 µM; in assay [9] it was 2.61 µM. The TGI in [2] amounted to 4.76 µM; in [3], 16.8 µM; in assay [4], 11.6 µM; in assay [5] it was 3.83 µM; in assay [6] it was 8.53 µM; in assay [10], 8.38 µM. In addition, the TGI in assay [7] is more than 100 µM; in assay [8], 4.93 µM; in [9], 18.7 µM.
